Data as given in patent US20160220464A1 (WUHAN OPTICS VALLEY BRIDGEBIOMED INTERNATIONAL CORPORATION, priority 2013, published 2016).
Where two headings read alike, the source gives them in different places. Where no end group is shown, it is not given here.

Key:
Type in all cases: cell-based
B2 receptor = biological target: T1, B2 receptor (Homo sapiens, UniProt P30411); assay: Relative PG secretion with B2 receptor inhibitor HOE-140; settings: 1 μM BK set as 100%
T1 construct: The cell strains used in the study were human primary vein endothelial cells (HPVEC) and human aortic smooth muscle cells (HASMC); endogenous in cells; host or cells: human primary vein endothelial cells (HPVEC) and human aortic smooth muscle cells (HASMC)
T1 sequence (P30411 1-391): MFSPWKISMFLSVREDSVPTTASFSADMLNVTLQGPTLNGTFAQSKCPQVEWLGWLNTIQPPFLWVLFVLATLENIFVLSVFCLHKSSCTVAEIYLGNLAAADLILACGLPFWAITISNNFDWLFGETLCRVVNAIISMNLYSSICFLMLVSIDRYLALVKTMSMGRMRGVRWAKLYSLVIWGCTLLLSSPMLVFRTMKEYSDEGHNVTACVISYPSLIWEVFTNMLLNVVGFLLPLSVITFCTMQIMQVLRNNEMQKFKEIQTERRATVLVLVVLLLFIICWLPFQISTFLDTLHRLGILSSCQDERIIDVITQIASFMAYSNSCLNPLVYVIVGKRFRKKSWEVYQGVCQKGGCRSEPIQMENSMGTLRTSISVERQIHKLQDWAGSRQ
Description: Two different cell lines were transferred into T-75 cell culture flask, and then the instructions of PG kit were strictly followed when cells have reached the appropriate density. Day 1. Cells were seeded in 24 well dishes with minimum medium and allowed to adhere overnight. Day 2. Cells were starved in the serum-free conditioned medium. Day 3. […] Cells were incubated at 37° C. for 1 h. The supernatant was collected after incubation for later use. Day 4. 24 well dishes were washed and then dyed for 45-90 min, and then the quantitative analysis was carried out.

BK B2 receptor = biological target: T2, BK B2 receptor (Homo sapiens, UniProt P30411); assay: Relative amount of PG secretion in cell supernatant by enzyme immunoassay (EIA); settings: 1 h, 1 μM BK set as 100%; for activation at 0.0001 µM: 0.1 nM; for activation at 0.001 µM: 1 nM; for activation at 0.01 µM: 10 nM; for activation at 0.03 µM: 30 nM; for activation at 0.1 µM: 100 nM; for activation at 0.3 µM: 300 nM
T2 construct: The cell strains used in the study were human primary vein endothelial cells (HPVEC) and human aortic smooth muscle cells (HASMC); endogenous in cells; host or cells: human primary vein endothelial cells (HPVEC) and human aortic smooth muscle cells (HASMC)
T2 sequence (P30411 1-391): T1 sequence (P30411 1-391)
Description: YLB-01, YLB-02 and YLB-03 were selected for the study as described below in Table 1, and BK was used as control. Implantation Two cell lines were transferred into T-75 cell culture flask, and then the instructions of PG kit were strictly followed when cells have reached the appropriate density. Day 1 Cells were seeded in 24 well dishes with minimum medium and allowed to adhere overnight. Day 2 Cells were starved in the serum-free conditioned medium. […] The supernatant was collected after incubation for later use. Day 4 24 well dishes were washed and then dyed for 45-90 min, and then the OD value was measured for analysis. […] In order to detect endogenous prostaglandin, enzyme immunoassay (EIA) was used to determine the amount of prostaglandin and subtypes thereof in the cell supernatant described above.

[1] = test system: human aortic smooth muscle cells (HASMC); assay: PG subtype secretion by EIA in HASMC; settings: 10 nM, 1 μM BK set as 100%
[2] = test system: human primary vein endothelial cells (HPVEC); assay: PG subtype secretion by EIA in HPVEC; settings: 10 nM, 1 μM BK set as 100%
Description: In order to study of prostaglandin subtypes secretion triggered by activation of B2 receptor by these three compounds, human primary vein endothelial cells (HPVEC) and human aortic smooth muscle cells (HASMC) were used for PG secretion, following the same protocol above; 10 nM of these compounds, YLB-1, YLB-2, YLB-3 was added. […] These percentage values above were all calibrated with respect to bradykinin.

[3] = biological target: T3, bradykinin (BK) B2 receptors (Homo sapiens, UniProt P30411); assay: PG secretion by BK B2 receptor agonists (PG kit, OD), EC50 and Emax; settings: HASMC; for EC50: 1 h incubation at 37° C.
T3 construct: The cell strains used in the study were human primary vein endothelial cells (HPVEC) and human aortic smooth muscle cells (HASMC); endogenous in cells; host or cells: human primary vein endothelial cells (HPVEC) and human aortic smooth muscle cells (HASMC)
T3 sequence (P30411 1-391): T1 sequence (P30411 1-391)
Description: Implantation Two cell lines were transferred into T-75 cell culture flask, and then the instructions of PG kit were strictly followed when cells have reached the appropriate density. Day 1 Cells were seeded in 24 well dishes with minimum medium and allowed to adhere overnight. Day 2 Cells were starved in the serum-free conditioned medium. Day 3 Minimum medium were used, and YLB-01, YLB-02 and YLB-03 were added to the medium, in which the concentration was 0.1 nM, 1 nM, 10 nM, 30 nM, 100 nM, 300 nM, 1 μM, 3 μM and 10 μM, respectively; the cells were incubated at 37° C. for 1 h. The supernatant was collected after incubation for later use. Day 4 24 well dishes were washed and then dyed for 45-90 min, and then the OD value was measured for analysis. The cell strains used in the study were human primary vein endothelial cells (HPVEC) and human aortic smooth muscle cells (HASMC).

Compound | Relative PG Secretion Amount with 1 μM HOE-140 (B2 receptor; agonist 0.1 nM + HOE-140 1 μM) [%] | Relative PG Secretion Amount with 1 μM HOE-140 (B2 receptor; agonist 1 nM + HOE-140 1 μM) [%] | Relative PG Secretion Amount with 1 μM HOE-140 (B2 receptor; agonist 10 nM + HOE-140 1 μM) [%] | Relative PG Secretion Amount with 1 μM HOE-140 (B2 receptor; agonist 30 nM + HOE-140 1 μM) [%] | Relative PG Secretion Amount with 1 μM HOE-140 (B2 receptor; agonist 100 nM + HOE-140 1 μM) [%] | Relative PG Secretion Amount with 1 μM HOE-140 (B2 receptor; agonist 300 nM + HOE-140 1 μM) [%] | Relative PG Secretion Amount with 1 μM HOE-140 (B2 receptor; agonist 1 μM + HOE-140 1 μM) [%] | Relative PG Secretion Amount with 1 μM HOE-140 (B2 receptor; agonist 3 μM + HOE-140 1 μM) [%] | Relative PG Secretion Amount with 1 μM HOE-140 (B2 receptor; agonist 10 μM + HOE-140 1 μM) [%] | activation at 0.0001 µM (BK B2 receptor) [%] | activation at 0.001 µM (BK B2 receptor) [%] | activation at 0.01 µM (BK B2 receptor) [%] | activation at 0.03 µM (BK B2 receptor) [%] | activation at 0.1 µM (BK B2 receptor) [%] | activation at 0.3 µM (BK B2 receptor) [%] | activation at 1 µM (BK B2 receptor) [%] | activation at 3 µM (BK B2 receptor) [%] | activation at 10 µM (BK B2 receptor) [%] | PGD2 [1] | PGE2 [1] [%] | also measured
CNC(=O)N1CCN(CCC(=O)NCC(=O)N(C)c2ccc(Cl)c(COc3cccc4c3nc(OC)n4Cc3ccccn3)c2Cl)CC1 [YLB-03, 4-{2-[({[2,4-Dichloro-3-(2-methoxy-1-pyridin-2-ylmethyl-1H-benzoimidazol-4-yloxymethyl)-phenyl]-methyl-carbamoyl}-methyl)-carbamoyl]-ethyl}-piperazine-1-carboxylic acid methylamide] | 0.54 ± 3.59 | 2.65 ± 3.81 | 5.64 ± 4.05 | 4.90 ± 4.83 | 3.97 ± 2.75 | 0.48 ± 3.50 | 5.14 ± 2.67 | 7.33 ± 4.12 | 26.08 ± 7.56 | 0.44 ± 1.22 | 10.3 ± 2.3 | 47.3 ± 4.22 | ~55 | 71 ± 4.57 | 86.2 ± 8.51 | 85 ± 4.83 | 95.6 ± 7.21 | 103 ± 9.06 | undetectable | 27.83 ± 10.66 | PGF-2a [1]: 8.43 ± 3.57%; PGD2 [2]: undetectable; PGE2 [2]: 31.04 ± 8.49%; PGF-2a [2]: undetectable; EC50 [3]: 26.2 ± 2.87 nM; Emax ([3]; relative to BK, read-out: Emax): 103%; Emax ([3]; relative to BK): 103.48 ± 9.06%
RPPGFSPFR [BK, Bradykinin, reference compound] | – | – | – | – | – | – | – | – | – | – | – | – | – | – | – | – | – | – | – | – | Emax [3]: 101 ± 5.5%
COc1nc2c(OCc3c(Cl)ccc(N(C)C(=O)CNC(=O)CCc4ccc(NC(C)=O)nc4)c3Cl)cccc2n1Cc1ccccn1 [YLB-02] | 3.65 ± 2.77 | 0.21 ± 4.42 | 5.60 ± 3.43 | 3.33 ± 1.88 | 0.43 ± 4.16 | 1.05 ± 2.39 | 2.87 ± 3.04 | 4.25 ± 2.06 | 10.1 ± 4.43 | 0 | 15.2 ± 3.36 | 26.4 ± 6.06 | ~40 | 65.6 ± 8.1 | 67.3 ± 7.02 | 66.9 ± 8.11 | 70.4 ± 5.06 | 65.5 ± 5.78 | undetectable | 26.33 ± 6.78 | PGF-2a [1]: 7.1 ± 3.41%; PGD2 [2]: undetectable; PGE2 [2]: 34.15 ± 9.54%; PGF-2a [2]: undetectable; EC50 [3]: 40.6 ± 4.19 nM; Emax ([3]; relative to BK, read-out: Emax): 70%; Emax ([3]; relative to BK): 70.44 ± 5.06%
